The test system of data set [1] is cloned human 5-HT2B receptor. The data set can be described thus: [3H]5-HT radioligand binding, cloned human 5-HT2B receptor. As to conditions: statement in words only, no value given.
Data set [2] can be described thus: studies using radiolabelled compound, residues in saliva. The class given is in vivo. Here is the method: For example, in the treatment of adult humans, dosages of from 0.25 to 30 mg, preferably from 1 to 20 mg, per day may be used. A once a day dosage is normally sufficient, although divided doses may be administered. For treatment of gastrointestinal disorders, a dose range of from 1 to 20 mg, preferably 2.5 to 15 mg per day is suitable.

As for `Cc1cc2c(s1)Nc1ccccc1N=C2N1CCN(C)CC1` [2-methyl-4-(4-methyl-1-piperazinyl)-10H-thieno-[2,3-b][1,5]benzodiazepine], the 5-HT2B receptor activity in data set [1] is 5-HT2B receptor activity. The “residues of radiolabelled compound in saliva” value in data set [2] is recorded as “detected in the saliva”.

Source of the values: patent publication US5457101A (priority 1994, dated 1995).
